We go through 103 molecules from ChEMBL document CHEMBL3507680, “University of Dundee, Gates Library screen for HepG2 cell viability”.

The data set in a line: Human HepG2 cell viability assay in 384 well format. Type of data set: toxicity, cell-based. Details: dose 125 nL, time 70.5 hour; concentration not given beside the values. The settings on record: HepG2 cells, read-out: Inhibition.

For `CS(=O)(=O)N1CCc2c(cccc2NC(=O)NC2CCCC2)C1`, the cytotoxicity at 70.5 h was -3.1%.

In the case of `CCSc1ccc(C(=O)NCCc2nnc(-c3ccco3)[nH]2)cn1`, the cytotoxicity at 70.5 h is -6.64%.

On to `COc1ccc(COCC(=O)NC2CCc3nc(C)cn3C2)cc1` (stereo not drawn), for which the cytotoxicity at 70.5 h was -2.95%.

In the case of `O=C(Nc1nnc[nH]1)C(c1cccc(F)c1)N1CCOCC1` (stereo not drawn), the cytotoxicity at 70.5 h was -1.33%.

For the molecule `CC(C)(CC(=O)Nc1cccc(Oc2ccccn2)c1)C(=O)O`, the cytotoxicity at 70.5 h is -5.32%.

As to `Cc1cc(NS(=O)(=O)c2cccs2)ccc1-n1cccc1C(=O)O`, the cytotoxicity at 70.5 h is -1.78%.

For `COCCN(Cc1cccnc1)S(=O)(=O)c1cc(C)ccc1F`, the cytotoxicity at 70.5 h is -5.06%.

For the molecule `Cn1ccnc1CNC(=O)N(CCCO)C1CCc2ccccc21` (stereo not drawn), the cytotoxicity at 70.5 h was -4.97%.

For `Cc1nc(C)n(CC2CCCCN2Cc2nnc(-c3ccco3)o2)n1` (stereo not drawn), the cytotoxicity at 70.5 h is -6.54%.

As for `COCCN(Cc1cccnc1)S(=O)(=O)c1ccc(F)cc1C`, the cytotoxicity at 70.5 h is -4.8%.

On to `COc1ccccc1CN(C)C(=O)CN1CC(n2nc(C)cc2C)C1`, for which the cytotoxicity at 70.5 h was -2.12%.

Turning to `Cc1nc(C)n(CC2CCCN(Cc3nnc(C4CC4)o3)C2)n1` (stereo not drawn), the cytotoxicity at 70.5 h is -7.21%.

For the molecule `Cc1cn2c(n1)CCC(NC(=O)COCCOc1ccccc1)C2` (stereo not drawn), the cytotoxicity at 70.5 h was -8.88%.

Regarding `Cc1nc(C)n(CC2CCCN2Cc2nnc(-c3ccco3)o2)n1` (stereo not drawn), the cytotoxicity at 70.5 h came to 11.1%.

Consider `COc1cccc(CNc2cc(CO)ccc2Cl)c1`, for which the cytotoxicity at 70.5 h was -8.65%.

Turning to `CC(C)Oc1ncc(C(=O)N2CCCC(C(=O)O)C2)cc1Cl` (stereo not drawn), the cytotoxicity at 70.5 h was -7.98%.

Regarding `CN(Cc1ccc(Cl)s1)C(=O)Cn1nc(-c2ccc(F)cc2)oc1=O`, the cytotoxicity at 70.5 h was -13.3%.

For the molecule `CN(Cc1cccc(Cl)c1)C(=O)Cn1nc(-c2ccc(F)cc2)oc1=O`, the cytotoxicity at 70.5 h was -2.8%.

Regarding `Cc1cc(=O)n2ncnc2n1CC(O)COCc1ccccc1Cl` (stereo not drawn), the cytotoxicity at 70.5 h was -9.61%.

As to `CC(C)c1ccc(CS(=O)(=O)CC(=O)NCc2ccccc2F)cc1`, the cytotoxicity at 70.5 h is -17.3%.

For the molecule `O=C(NCC(O)c1ccc(F)c(F)c1)c1ccccc1F` (stereo not drawn), the cytotoxicity at 70.5 h was -9.96%.

With `Cc1ccccc1C(=O)NCC(O)c1ccc(F)c(F)c1` (stereo not drawn), the cytotoxicity at 70.5 h is -5.82%.

In the case of `COc1ncccc1CNC(=O)CN1CCCCCC1=O`, the cytotoxicity at 70.5 h was -16.5%.

As to `CC(C)Cc1noc(CN2CCCN(C(=O)c3cccc(Cl)c3)CC2)n1`, the cytotoxicity at 70.5 h turned out to be 23.3%.

Consider `O=C(CS(=O)(=O)Cc1ccc(F)cc1)NCc1ccccc1F`, for which the cytotoxicity at 70.5 h is -8.79%.

Take `Cc1ccc(C(=O)NCC(O)c2ccc(F)c(F)c2)c(=O)[nH]1` (stereo not drawn): the cytotoxicity at 70.5 h is -10.6%.

In the case of `CC(C)Oc1ncc(C(=O)N2CCC(CC(N)=O)CC2)cc1Cl`, the cytotoxicity at 70.5 h is -8.52%.

`O=C(CS(=O)(=O)Cc1ccccc1)NCc1ccccc1F`: the cytotoxicity at 70.5 h stood at 22.1%.

Turning to `COC(C)C(=O)Nc1cc(C(=O)N2CCSCC2)ccc1C` (stereo not drawn), the cytotoxicity at 70.5 h was found to be 0.013%.

As to `COCCCNC(=O)Nc1cc(-c2ccccc2C)nn1CCO`, the cytotoxicity at 70.5 h is -5.71%.

On to `COC(=O)CCN1CCC(C(=O)c2cc(F)ccc2F)CC1`, for which the cytotoxicity at 70.5 h was -12.5%.

On to `CN(C)C(=O)Cc1nc(CN2CCCCC2Cn2cncn2)cs1` (stereo not drawn), for which the cytotoxicity at 70.5 h is 23.2%.

Regarding `Cc1ccccc1-c1cc(NC(=O)NC2CC2)n(CCO)n1`, the cytotoxicity at 70.5 h came out at 1.97%.

As for `O=C(NCCN1C(=O)CCC1=O)c1nc2ccccc2c(=O)[nH]1`, the cytotoxicity at 70.5 h is -12.2%.

On to `Cc1n[nH]c(C2CN(C(=O)c3coc(Br)c3)CCO2)n1` (stereo not drawn), for which the cytotoxicity at 70.5 h was -10.2%.

Consider `Cc1n[nH]c(C2CN(C(=O)c3ccc4c(c3)COC4)CCO2)n1` (stereo not drawn), for which the cytotoxicity at 70.5 h was -1.57%.

For the molecule `O=C(CNC(=O)c1c(F)cccc1Cl)Nc1ccc(F)cn1`, the cytotoxicity at 70.5 h is -12.6%.

Regarding `Cc1n[nH]c(C2CN(C(=O)c3csnn3)CCO2)n1` (stereo not drawn), the cytotoxicity at 70.5 h is -11.9%.

On to `Cc1csc(NC(=O)c2cccnc2N2CCOCC2)n1`, for which the cytotoxicity at 70.5 h came to 18.7%.

On to `CNC(=O)CS(=O)(=O)Cc1ccc(OC)c(F)c1`, for which the cytotoxicity at 70.5 h is -11.9%.

In the case of `CN(C)C(=O)Cc1nc(CN2CCCC2Cn2cncn2)cs1` (stereo not drawn), the cytotoxicity at 70.5 h is -10.9%.

Regarding `Cc1nnc(CN(C)C2CCN(CCc3cccs3)C2)n1C` (stereo not drawn), the cytotoxicity at 70.5 h was determined as 15.2%.

As to `Cc1cccc(C(=O)N2CCN(c3ccccc3F)CC2)n1`, the cytotoxicity at 70.5 h was -7.27%.

In the case of `CN(CC(=O)NC1CC1)S(=O)(=O)c1ccc(F)cc1Cl`, the cytotoxicity at 70.5 h is -3.95%.

For the molecule `CCCc1nnc(NC(=O)NC2CCOc3ccccc32)s1` (stereo not drawn), the cytotoxicity at 70.5 h was -4.65%.

Take `CC(=O)c1c(F)cccc1N1CCC(C(N)=O)CC1`: the cytotoxicity at 70.5 h is -1.92%.

Consider `CC(=O)N1CCN(C(=O)CN2CCN(c3cccc(C)c3)CC2)CC1`, for which the cytotoxicity at 70.5 h is -6.8%.

With `CCc1noc(C)c1C(=O)Nc1cnn(CC(=O)NC2CCCC2)c1`, the cytotoxicity at 70.5 h is -1.44%.

Turning to `COc1ccc(C(=O)Nc2c(C)nn(C(C)C)c2C)cc1`, the cytotoxicity at 70.5 h is 23.1%.

In the case of `CCN(CC)C(=O)CCNC(=O)c1ccccc1N1CCOCC1`, the cytotoxicity at 70.5 h stood at 23.2%.

As to `CCCNC(=O)CCNC(=O)c1ccccc1N1CCOCC1`, the cytotoxicity at 70.5 h was -4.62%.

Take `Cc1cccc(CNCCOc2ccc(S(C)(=O)=O)cc2)c1`: the cytotoxicity at 70.5 h is -0.853%.

Take `CCN(CC)c1ccc(NS(=O)(=O)c2cnn(CC)c2)cn1`: the cytotoxicity at 70.5 h worked out at 1.09%.

Consider `Cc1noc(C)c1CNC(=O)N1CCC(OCC2CC2)CC1`, for which the cytotoxicity at 70.5 h is 25.4%.

As for `Cc1ccc(OCC(=O)NCc2sccc2C)nc1`, the cytotoxicity at 70.5 h is -3.68%.

In the case of `CCN(C1CCN(c2cccc(F)c2C(C)=O)CC1)S(C)(=O)=O`, the cytotoxicity at 70.5 h was -5.28%.

For `CN(Cc1nnc(C2CC2)n1C)C1CCN(CCc2ccccc2)C1` (stereo not drawn), the cytotoxicity at 70.5 h was -3.03%.

With `CCCN1CCCN(c2ncccc2C(=O)N2CCCCC2)CC1`, the cytotoxicity at 70.5 h was -2.98%.

For `Cc1cc(C)c(C(=O)Nc2cccc(CN3CCC(CO)CC3)c2)o1`, the cytotoxicity at 70.5 h was determined as 4.26%.

In the case of `COC(=O)C(C)(C)NC(=O)C1CC(=O)N(CC(C)C)C1` (stereo not drawn), the cytotoxicity at 70.5 h was -0.314%.

Consider `CCN1CC(C(=O)NC(C)(C)C(=O)OC)CC1=O` (stereo not drawn), for which the cytotoxicity at 70.5 h turned out to be 3.17%.

With `N#Cc1ncn(CCC(=O)Nc2cc(Cl)ccc2Cl)n1`, the cytotoxicity at 70.5 h is -4.2%.

Take `COc1ccc(CC(=O)NCCNS(=O)(=O)c2ccc(C)cc2)cc1`: the cytotoxicity at 70.5 h is 2.16%.

In the case of `COc1ccc(OCCN(C)C(=O)c2ccc(OC)cc2O)cc1`, the cytotoxicity at 70.5 h is -9.58%.

Consider `CC(c1cccnc1)N1CCN(CCc2ccccn2)CC1` (stereo not drawn), for which the cytotoxicity at 70.5 h is -0.575%.

For `c1ccn2c(SCC3CN=C(N4CCOCC4)S3)ncc2c1` (stereo not drawn), the cytotoxicity at 70.5 h came to 19.3%.

Take `COc1ccc(CNC(C)c2cn[nH]c2C)cc1` (stereo not drawn): the cytotoxicity at 70.5 h was found to be 14.1%.

On to `CC(C)c1nc(C2CCCN2C(=O)CN(C)Cc2ccccc2)no1` (stereo not drawn), for which the cytotoxicity at 70.5 h is 11.3%.

Take `Cc1n[nH]c(SCC(=O)NC(c2ccncc2)C(C)C)n1` (stereo not drawn): the cytotoxicity at 70.5 h was 21%.

As for `CC(C)c1cccc(CSc2nnc(Cn3cncn3)o2)n1`, the cytotoxicity at 70.5 h is -7.35%.

Regarding `CCN(Cc1ccoc1)C(C(N)=O)c1cccc(Br)c1` (stereo not drawn), the cytotoxicity at 70.5 h was -7.25%.

For the molecule `CNC(=O)CCN1CCCCCC1c1ccc(C)o1` (stereo not drawn), the cytotoxicity at 70.5 h worked out at 13.3%.

`CCN(C(C)=O)c1nc(CN2CCN(c3nccs3)CC2)cs1`: the cytotoxicity at 70.5 h was 23.5%.

On to `CC(C)c1nnc(NC(=O)CCc2cc(F)ccc2F)[nH]1`, for which the cytotoxicity at 70.5 h was -16.3%.

As to `Cc1cn2nc(N3CCCC3C(=O)N3CCOCC3)sc2n1` (stereo not drawn), the cytotoxicity at 70.5 h is -15.3%.

Regarding `Cc1nnc(N2CCNCC2)c(C(N)=O)c1C`, the cytotoxicity at 70.5 h is -16.9%.

On to `O=C(NCc1cccc(F)c1)Nc1ccn(CCN2CCOCC2)n1`, for which the cytotoxicity at 70.5 h was -4.92%.

`O=C(NCc1ccccc1F)Nc1ccn(CCN2CCOCC2)n1`: the cytotoxicity at 70.5 h is -15.3%.

With `Cc1ccc(C2CCCCCN2CCNS(C)(=O)=O)o1` (stereo not drawn), the cytotoxicity at 70.5 h was -5.05%.

`CC(C)c1cc(CNC(=O)Nc2cc(F)cc(N3CCCC3)c2)on1`: the cytotoxicity at 70.5 h came out at 17.1%.

On to `CCc1cc(CNC(=O)Nc2cc(F)cc(N3CCCC3)c2)on1`, for which the cytotoxicity at 70.5 h was -11.5%.

As to `CN(Cc1ccc([S+](C)[O-])cc1)c1cncc(Cl)n1` (stereo not drawn), the cytotoxicity at 70.5 h was -15.4%.

Take `CCCc1cc(C(=O)Nc2nc(SC)ns2)[nH]n1`: the cytotoxicity at 70.5 h was -4.32%.

For the molecule `CCOc1cccc(NC(=O)Cc2cccc(O)c2)n1`, the cytotoxicity at 70.5 h came out at 16.2%.

In the case of `CC(C)(C)OC(=O)NC1CCC(NC(=O)c2ccc[nH]2)CC1` (stereo not drawn), the cytotoxicity at 70.5 h is -6.62%.

Turning to `O=C1CCc2cc(S(=O)(=O)NC(=O)c3ccc4c(c3)CCO4)ccc2N1`, the cytotoxicity at 70.5 h is -1.87%.

Consider `O=c1[nH]nc2n1CCN(S(=O)(=O)c1ccccc1Cl)C2`, for which the cytotoxicity at 70.5 h is -7.03%.

As for `CCCc1nnnn1Cc1cn2c(C)cccc2n1`, the cytotoxicity at 70.5 h is -2.3%.

As for `CNC(=O)COc1ccccc1CNCc1c(C)noc1C`, the cytotoxicity at 70.5 h is -3.67%.

With `Cc1cc(CNC(=O)CC2CN(C(=O)OC(C)(C)C)C2)ccc1F`, the cytotoxicity at 70.5 h is -9.79%.

Take `CN(Cc1ccc([S+](C)[O-])cc1)c1ccc(Br)cn1` (stereo not drawn): the cytotoxicity at 70.5 h is -0.515%.

Turning to `Cc1ccc(C2CCCCCN2CCCS(C)(=O)=O)o1` (stereo not drawn), the cytotoxicity at 70.5 h was -10.5%.

As for `CCOc1cccc(CCNC(=O)Cc2ccccc2O)n1`, the cytotoxicity at 70.5 h is -14.9%.

In the case of `O=C(CN1CCC2(CCCCC2)C1)NCC(F)(F)F`, the cytotoxicity at 70.5 h is -9.38%.

`CSc1ccc(NC(=O)COCc2ccccc2)nc1`: the cytotoxicity at 70.5 h is 15%.

Turning to `CCCn1nnnc1CSCc1cn2c(C)cccc2n1`, the cytotoxicity at 70.5 h is -12.9%.

`CCCC(C)(C)NC(=O)c1cnc(CC)s1`: the cytotoxicity at 70.5 h was -1.12%.

Take `CCc1ncc(C(=O)NC(C)(C)C(=O)OC)s1`: the cytotoxicity at 70.5 h was 12.2%.

For `Cn1nnnc1SCCC(=O)NCC(C)(C)c1ccccc1F`, the cytotoxicity at 70.5 h came out at 19.1%.

On to `CC(C)(CNC(=O)CSc1nnnn1C1CC1)c1ccccc1F`, for which the cytotoxicity at 70.5 h is -7.67%.

Consider `COCCCSc1ccc(NC(=O)Nc2cn[nH]c2)cc1`, for which the cytotoxicity at 70.5 h amounted to 18.2%.

As for `N#Cc1ccc(N2CCN(c3cnccn3)CC2)cc1C(F)(F)F`, the cytotoxicity at 70.5 h amounted to 24.7%.

As for `O=C(Nc1ccc(F)cc1)C(c1ccccc1)N1CCOCC1` (stereo not drawn), the cytotoxicity at 70.5 h is 5.55%.
